Laboratory results published in patent US20250145665A1, “MACROCYCLIC PEPTIDES USEFUL AS MODULATORS OF TNF ALPHA” (Bristol-Myers Squibb Company, priority 2023, published 2025).
Read-outs that look alike come from different tables or passages of the source. Starred links: 1 amine or outer side, 2 acyl side, 3 side chain; linkers in the order of their positions; H or OH if unused. Positions of bridges follow the written chain, without caps; N, C: chain ends. Non-standard residues stand in square brackets, D forms with d. Residues, ends and D or L forms follow the SMILES beside them. *: point of attachment. Bip(4'-NHCO-C6H4-3-CH2COOH) = N[C@@H](Cc1ccc(-c2ccc(NC(=O)c3cccc(CC(=O)O)c3)cc2)cc1)C(=O)O; X5 = Cn1nc(C(=O)Nc2ccc(-c3ccc(C[C@H](N[*:1])C(=O)[*:2])cc3)cc2)c2ccccc21; X21 = N=C(NCCC[C@@H](N[*:1])C(=O)[*:2])NC[C@H](O)[C@@H](O)[C@@H](O)CO; Bip(4'-NH) = O=C([C@H](Cc1ccc(-c2ccc(N[*:3])cc2)cc1)N[*:1])[*:2]; dArg(ω-(3-HO-benzyl)) = N=C(NCCC[C@@H](N)C(=O)O)NCc1cccc(O)c1; Indazole3carbonyl(1-CH2COOH) = O=C(O)Cn1nc(C(=O)*)c2ccccc21; Bip(4'-COOH) = N[C@@H](Cc1ccc(-c2ccc(C(=O)O)cc2)cc1)C(=O)O; Bip(4'-NHAc) = CC(=O)Nc1ccc(-c2ccc(C[C@H](N)C(=O)O)cc2)cc1; X36 = N=C(NCCC[C@@H](N[*:1])C(=O)[*:2])NCc1cccc(C(=O)O)c1; X6 = N=C(NCCCCC(N)=O)NCCC[C@@H](N[*:1])C(=O)[*:2]; Ala(imidazol-2-yl) = N[C@@H](Cc1ncc[nH]1)C(=O)O; Ala(morpholin-4-yl) = N[C@@H](CN1CCOCC1)C(=O)O; Benzoyl(3-OCH2COOH) = O=C(O)COc1cccc(C(=O)*)c1; Bip = N[C@@H](Cc1ccc(-c2ccccc2)cc1)C(=O)O; 2Pal = N[C@@H](Cc1ccccn1)C(=O)O; Tic = O=C(O)[C@@H]1Cc2ccccc2CN1; Cha = N[C@@H](CC1CCCCC1)C(=O)O; Chg = N[C@H](C(=O)O)C1CCCCC1; Tle = CC(C)(C)[C@H](N)C(=O)O; Sar = CNCC(=O)O

Biological target: TNFα (Homo sapiens, UniProt P01375)
Sequence (P01375 77-233 limits assumed): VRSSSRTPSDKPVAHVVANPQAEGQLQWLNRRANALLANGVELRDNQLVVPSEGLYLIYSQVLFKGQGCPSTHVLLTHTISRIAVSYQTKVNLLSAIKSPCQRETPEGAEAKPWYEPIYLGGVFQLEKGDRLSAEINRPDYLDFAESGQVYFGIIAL
Assay: TNF-Induced HEK-Blue Assay
Format: cell-based
[1] = HEK-Blue-CD40L cells, NF-kB-driven secreted alkaline phosphatase reporter, TNFα 0.5 ng/ml, 18 h, read-out: TNF induced HEK-Blue assay IC50 value

Experimental: TNFα (final concentration 0.5 ng/ml) or CD40L (final concentration 30 ng/ml) in assay buffer [DMEM, 4.5 g/l glucose (Gibco, Cat. 21063-029), 10% FBS (Sigma, F4135), 1% Penicillin-Streptomycin (Gibco, Cat. 15140-122), 1% Anti-Anti (Gibco, Cat. 15240-112) and 2 mM L-glutamine (Gibco, Cat. 25030-081)] was then added to the assay plate. After a 30 minute pre-incubation at 37° C. and 5% CO2, HEK-Blue™-CD40L cells (INVIVOGEN, Cat. Code hkb-cd40) containing a NF-kB-driven secreted alkaline phosphatase reporter gene were seeded into the assay plate at a density of 20,000 cells per well. This plate was then incubated for 18 h at 37° C. and 5% CO2. Secreted alkaline phosphatase expression was measured using QUANTI-Blue™ (INVIVOGEN, Cat. Code rep-qb1) according to manufacturer's specifications and the assay plate was read on a PerkinElmer Envision at 620 nm.
IC50 values were determined after correcting for background [(sample read-mean of low control)/(mean of high control-mean of low control)] where by the low control is DMSO without stimulation and high control is DMSO with stimulation.

IC50 [1] [nM]	SMILES	IC50 [nM]
200 to 2000	CC(C)C[C@@H]1NC(=O)[C@H](CCCNC(=N)N)NC(=O)[C@H](C(C)C)NC(=O)[C@@H]2CCCN2C(=O)[C@H](C(C)C)NC(=O)[C@@H](CCCNC(=N)NCc2cccc(C(=O)O)c2)NC(=O)[C@H](CC(=O)O)NC(=O)[C@@H]2CCCN2C(=O)CN(C)C(=O)[C@H](Cc2ccc(-c3ccc(NC(=O)c4cccc(CC(=O)O)c4)cc3)cc2)NC(=O)[C@H](Cc2ccc(-c3ccccc3)cc2)NC(=O)[C@H](CN2CCOCC2)NC(=O)CSC[C@@H](C(=O)NCC(N)=O)NC1=O [Example 543] ({CH2CO}-[Ala(morpholin-4-yl)][Bip][Bip(4'-NHCO-C6H4-3-CH2COOH)][Sar]PD[X36]VPVRLCG-NH2; thioether N-13)	
50 to 200	CC[C@H](C)[C@@H]1NC(=O)[C@@H](CCCNC(=N)N)NC(=O)[C@H](CC(=O)O)NC(=O)[C@@H]2CCCN2C(=O)CN(C)C(=O)[C@H](Cc2ccc(-c3ccc(NC(C)=O)cc3)cc2)NC(=O)[C@H](Cc2ccc(-c3ccc(C(=O)O)cc3)cc2)NC(=O)[C@H](C(C)(C)C)NC(=O)CSC[C@@H](C(=O)NCC(N)=O)NC(=O)[C@H](CC(C)C)NC(=O)[C@H](Cc2ccc(O)cc2)NC(=O)[C@H](C2CCCCC2)NC(=O)[C@@H]2CCCN2C1=O [Example 270] ({CH2CO}-[Tle][Bip(4'-COOH)][Bip(4'-NHAc)][Sar]PD[dR]IP[Chg]YLCG-NH2; thioether N-13)	

The next lines start with the molecule.

SMILES	IC50 [1] [nM]	IC50 [nM]
CC[C@H](C)[C@@H]1NC(=O)[C@@H](CCCNC(=N)NCc2cccc(O)c2)NC(=O)[C@H](CC(=O)O)NC(=O)[C@H](Cc2cnc[nH]2)NC(=O)CN(C)C(=O)[C@H](Cc2ccc(-c3ccc(NC(=O)c4cccc(OCC(=O)O)c4)cc3)cc2)NC(=O)[C@H](Cc2ccc(-c3ccc(C(=O)O)cc3)cc2)NC(=O)[C@H](CC2CCCCC2)NC(=O)CSC[C@@H](C(=O)NCC(N)=O)NC(=O)[C@H](CC(C)C)NC(=O)[C@H](Cc2ncc[nH]2)NC(=O)[C@H](C(C)C)NC(=O)[C@@H]2Cc3ccccc3CN2C1=O [Example 564] ({CH2CO}-[Cha][Bip(4'-COOH)][Bip(4'-NH)](Benzoyl(3-OCH2COOH))[Sar]HD[dArg(ω-(3-HO-benzyl))]I[Tic]V[Ala(imidazol-2-yl)]LCG-NH2; thioether N-13)	< 50	
CC(C)C[C@@H]1NC(=O)[C@H](Cc2cnc[nH]2)NC(=O)[C@H](C(C)C)NC(=O)[C@@H]2CCCN2C(=O)[C@H](C(C)C)NC(=O)[C@@H](CCCNC(=N)NCc2cccc(O)c2)NC(=O)[C@H](CC(=O)O)NC(=O)[C@H](Cc2ccccn2)NC(=O)CN(C)C(=O)[C@H](Cc2ccc(-c3ccc(NC(=O)c4nn(CC(=O)O)c5ccccc45)cc3)cc2)NC(=O)[C@H](Cc2ccc(-c3ccccc3)cc2)NC(=O)[C@H](CN2CCOCC2)NC(=O)CSC[C@@H](C(=O)NCC(N)=O)NC1=O [Example 624] ({CH2CO}-[Ala(morpholin-4-yl)][Bip][Bip(4'-NH)](Indazole3carbonyl(1-CH2COOH))[Sar][2Pal]D[dArg(ω-(3-HO-benzyl))]VPVHLCG-NH2; thioether N-13)		< 50
CC(C)C[C@@H]1NC(=O)[C@H](CCCNC(=N)N)NC(=O)[C@H](C(C)C)NC(=O)[C@@H]2CCCN2C(=O)[C@H](C(C)C)NC(=O)[C@@H](CCCNC(=N)NCCCCC(N)=O)NC(=O)[C@H](CC(=O)O)NC(=O)[C@@H]2CCCN2C(=O)CN(C)C(=O)[C@H](Cc2ccc(-c3ccc(NC(=O)c4nn(CC(=O)O)c5ccccc45)cc3)cc2)NC(=O)[C@H](Cc2ccc(-c3ccccc3)cc2)NC(=O)[C@H](CN2CCOCC2)NC(=O)CSC[C@@H](C(=O)NCC(N)=O)NC1=O [Example 391] ({CH2CO}-[Ala(morpholin-4-yl)][Bip][Bip(4'-NH)](Indazole3carbonyl(1-CH2COOH))[Sar]PD[X6]VPVRLCG-NH2; thioether N-13)		50 to 200
CC(C)C[C@@H]1NC(=O)[C@H](CCCNC(=N)N)NC(=O)[C@H](C(C)C)NC(=O)[C@@H]2CCCN2C(=O)[C@H](C(C)C)NC(=O)[C@@H](CCCNC(=N)NC[C@H](O)[C@@H](O)[C@@H](O)CO)NC(=O)[C@H](CC(=O)O)NC(=O)[C@@H]2CCCN2C(=O)CN(C)C(=O)[C@H](Cc2ccc(-c3ccc(NC(=O)c4cccc(CC(=O)O)c4)cc3)cc2)NC(=O)[C@H](Cc2ccc(-c3ccccc3)cc2)NC(=O)[C@H](CN2CCOCC2)NC(=O)CSC[C@@H](C(=O)NCC(N)=O)NC1=O [Example 627] ({CH2CO}-[Ala(morpholin-4-yl)][Bip][Bip(4'-NHCO-C6H4-3-CH2COOH)][Sar]PD[X21]VPVRLCG-NH2; thioether N-13)	50 to 200	
CC[C@H](C)[C@@H]1NC(=O)[C@@H]2CCCN2C(=O)[C@H]([C@@H](C)CC)NC(=O)[C@@H](CCCNC(=N)N)NC(=O)[C@H](CC(=O)O)NC(=O)[C@H](Cc2ccccc2)NC(=O)CN(C)C(=O)[C@H](Cc2ccc(-c3ccc(NC(=O)c4nn(C)c5ccccc45)cc3)cc2)NC(=O)[C@H](Cc2ccc(-c3ccccc3)cc2)NC(=O)[C@H](CC2CCCCC2)NC(=O)CSC[C@@H](C(=O)NCC(N)=O)NC(=O)[C@H](CC(C)C)NC(=O)[C@H](Cc2ncc[nH]2)NC1=O [Example 402] ({CH2CO}-[Cha][Bip][X5][Sar]FD[dR]IPI[Ala(imidazol-2-yl)]LCG-NH2; thioether N-13)	50 to 200	
